The values below come from patent US10206907B2, “Compounds useful for the treatment of degenerative and inflammatory diseases” (GALAPAGOS NV, priority 2008, dated 2019).

For orientation: efflux ratio means the permeability from basolateral to apical divided by that in the opposite direction, in the common usage. In general, pIC50 refers to the IC50 on a negative log10 scale, so that one unit is a factor of ten. As a reminder, the pEC50 is the negative decadic logarithm of the EC50, by convention in mol/L.

One data set concerns TNF-alpha release. In words: Septic shock model (LPS-induced TNF release). The data set is classed as in vivo, mouse. The settings on record: 30 mg/kg po, BALB/cJ mice, LPS ip; statistically significant. The procedure:
Injection of lipopolysaccharide (LPS) induces a rapid release of soluble tumour necrosis factor (TNF-alpha) into the periphery. This model is used to analyse prospective blockers of TNF release in vivo.
Six BALB/cJ female mice (20 g) per group were treated at the intended dosing once, po. Thirty minutes later, LPS (15 μg/kg; E. Coli serotype 0111:B4) was injected ip. Ninety minutes later, mice were euthanized and blood was collected. Circulating TNF alpha levels were determined using commercially available ELISA kits. Dexamethasone (5 μg/kg) was used as a reference anti-inflammatory compound. Selected compounds are tested at one or multiple doses, e.g. 3 and/or 10 and/or 30 mg/kg, po.

The nature of data set [1]: Caco2 permeability (bi-directional). The data set is classed as in vitro ADME, human. The settings on record: human, pH 7.4; for Papp A→B at 1 h, 10 µM: Caco-2, apical to basolateral, read-out: Papp (A2B); for efflux ratio at 1 h, 10 µM: Caco-2, ratio of PappB>A/PappA>B. The gist of the method:
(§1)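 Bidirectional transport across Caco-2 monolayers was run for 1 h at 37 °C with shaking, with 50 μM Lucifer Yellow in the donor to check monolayer integrity (acceptance ≤100 nm/s). Apical and basal compound levels were measured by LC-MS/MS, and efflux ratio was taken as PappB>A/PappA>B.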

The nature of data set [2]: Microsomal stability, human liver microsomes. The settings on record: percentage of compound remaining after 60 minutes, 3 μM compound. In kind it is in vitro ADME. In outline:
(§2)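 Compound was incubated with liver microsomes plus an NADP+/glucose-6-phosphate/G6PDH/MgCl2 regenerating system at 37°C for 1 h. Reactions were stopped 1:1 with MeOH or ACN and analysed by LCMS.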

Data set [3] is described as follows: Microsomal stability, rat liver microsomes. The data set is classed as in vitro ADME. The settings on record: percentage of compound remaining after 60 minutes, 3 μM compound. The gist of the method: as §2
The target of data set [4] is Recombinant human JAK3 catalytic domain (Homo sapiens (Human), UniProt P52333). The experiment in a line: JAK3 inhibition assay. In kind it is biochemical. The settings on record: semi-quantitative score.
Recombinant human JAK3 catalytic domain, sequence (P52333 781-1124): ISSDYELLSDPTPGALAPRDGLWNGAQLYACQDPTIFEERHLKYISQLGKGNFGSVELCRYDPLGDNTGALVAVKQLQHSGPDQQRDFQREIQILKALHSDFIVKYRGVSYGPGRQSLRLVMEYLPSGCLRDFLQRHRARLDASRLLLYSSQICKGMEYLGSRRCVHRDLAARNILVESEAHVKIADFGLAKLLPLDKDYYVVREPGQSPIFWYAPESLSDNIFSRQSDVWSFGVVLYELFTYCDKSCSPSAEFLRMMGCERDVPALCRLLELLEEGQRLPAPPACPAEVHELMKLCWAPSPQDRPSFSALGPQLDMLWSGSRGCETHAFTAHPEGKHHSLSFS
Data set [5] deals with Recombinant human JAK2 catalytic domain (Homo sapiens (Human), UniProt O60674). In words: JAK2 inhibition assay. In kind it is biochemical. The settings on record: semi-quantitative score. The gist of the method: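 Radiometric kinase reactions ran for 90 min at 30 °C and were stopped with phosphoric acid, then washed and counted by scintillation. Percent inhibition was set relative to vehicle and to 10 μM staurosporine background. IC50 was derived from dose-dilution series.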
Recombinant human JAK2 catalytic domain, sequence (O60674 808-1132): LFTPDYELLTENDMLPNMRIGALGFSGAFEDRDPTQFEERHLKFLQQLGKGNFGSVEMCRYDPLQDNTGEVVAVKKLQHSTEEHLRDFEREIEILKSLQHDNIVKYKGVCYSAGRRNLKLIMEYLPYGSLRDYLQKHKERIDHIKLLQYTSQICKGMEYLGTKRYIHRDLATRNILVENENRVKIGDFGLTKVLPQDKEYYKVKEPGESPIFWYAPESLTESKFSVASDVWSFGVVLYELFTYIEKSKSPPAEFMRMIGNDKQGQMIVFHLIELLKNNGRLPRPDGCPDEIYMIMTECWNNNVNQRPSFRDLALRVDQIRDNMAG

Data set [6] addresses Recombinant human JAK1 catalytic domain (Homo sapiens (Human), UniProt P23458). In words: JAK1 inhibition assay. In kind it is biochemical. The settings on record: semi-quantitative score. The gist of the method: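 Radiometric assay read by scintillation counting after phosphoric-acid washes. Percent inhibition calculated from cpm relative to vehicle and 10 μM staurosporine control. IC50 derived from compound dose-dilution series.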

The subject of another data set is MMP13 in SW1353 cells. In words: OSM/IL-1β signaling assay (MMP13 levels in SW1353 cells).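 Further: secreted MMP13 captured by antibody, activated with APMA and its activity read by fluorescence, inhibition scaled between vehicle-treated triggered wells (0%) and untriggered wells (100%).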 The data set is classed as cell-based. The settings on record: Homo sapiens, read-out: MMP13 EC50.
In data set [7] the test system is JAK-STAT signalling in HeLa cells. The experiment in a line: JAK-STAT signalling assay (OSM-triggered pSTAT1(2)-luciferase reporter in HeLa cells). The data set is classed as cell-based. The settings on record: Homo sapiens, read-out: STAT signalling EC50. In outline:
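HeLa cells transiently transfected with pSTAT1(2)-luciferase reporter plus LacZ internal control, incubated overnight at 37 °C, 10% CO2, then OSM-stimulated with compound. Luciferase read by Steadylite luminescence and normalised to β-galactosidase (ONPG); percent inhibition from controls, EC50 from dose-response.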
Background: Reporter assays use an easily measured gene product as a stand-in for the process of interest.

Data set [8] concerns the target Recombinant human TYK2 catalytic domain (Homo sapiens (Human), UniProt P29597). In words: TYK2 inhibition assay. The data set is classed as biochemical. The settings on record: semi-quantitative score. In outline:
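Recombinant human TYK2 catalytic domain; radiometric kinase reaction run 90 min at 30° C, stopped with phosphoric acid, washed and counted by scintillation.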

The subject of data set [9] is Collagen Induced Arthritis (CIA). The experiment in a line: Rat CIA model. In kind it is in vivo. The settings on record: therapeutic dosing day 16 to day 30, p.o., statistical significance in several of the readouts. The procedure: Completed Freund's adjuvant (CFA) and incomplete Freund's adjuvant (IFA) were purchased from Difco. Bovine collagen type II (CII), lipopolysaccharide (LPS), and Enbrel were obtained from Chondrex (Isle d'Abeau, France); Sigma (P4252, L'Isle d'Abeau, France), Whyett (25 mg injectable syringe, France) Acros Organics (Palo Alto, Calif.), respectively. All other reagents used were of reagent grade and all solvents were of analytical grade.
Dark Agouti rats (male, 7-8 weeks old) were obtained from Harlan Laboratories (Maison-Alfort, France). Rats were kept on a 12 hours light/dark cycle (0700-1900). The temperature was maintained at 22° C., and food and water were provided ad libitum.
One day before the experiment, CII solution (2 mg/mL) was prepared with 0.05 M acetic acid and stored at 4° C. Just before the immunization, equal volumes of adjuvant (IFA) and CII were mixed by a homogenizer in a pre-cooled glass bottle in an ice water bath. Extra adjuvant and prolonged homogenization might be required if an emulsion is not formed. 0.2 mL of the emulsion was injected intradermally at the base of the tail of each rat on day 1, a second booster intradermal injection (CII solution at 2 mg/mL in CFA 0.1 mL saline) was performed on day 9. This immunization method was modified from published methods (Sims N A et al., (2004) Targeting osteoclasts with zoledronic acid prevents bone destruction in collagen-induced arthritis, Arthritis Rheum. 50 2338-2346; Jou et al., 2005).
The therapeutic effects of the test compounds were tested in the rat CIA model. Rats were randomly divided into equal groups and each group contained 10 rats. All rats were immunized on day 1 and boosted on day 9. Therapeutic dosing lasted from day 16 to day 30. The negative control group was treated with vehicle (MC 0.5%) and the positive control group with Enbrel (10 mg/kg, 3× week, s.c.). A compound of interest was typically tested at 3 doses, e.g. 3, 10, 30 mg/kg, p.o.
Arthritis was scored according the method of Khachigian 2006, Lin et al 2007 and Nishida et al. 2004. The swelling of each of the four paws was ranked with the arthritic score as follows: 0-no symptoms; 1-mild, but definite redness and swelling of one type of joint such as the ankle or wrist, or apparent redness and swelling limited to individual digits, regardless of the number of affected digits; 2-moderate redness and swelling of two or more types of joints; 3-severe redness and swelling of the entire paw including digits; 4-maximally inflamed limb with involvement of multiple joints (maximum cumulative clinical arthritis score 16 per animal) (Nishida et al., 2004).
Clinically, body weight loss is associated with arthritis (Shelton et al., 2005; Argiles et al., 1998; Rall, 2004; Walsmith et al., 2004). […] The change in body weight (%) after onset of arthritis was calculated as follows: […]
X-ray photos were taken of the hind paws of each individual animal. A random blind identity number was assigned to each of the photos, and the severity of bone erosion was ranked by two independent scorers with the radiological Larsen's score system as follows: 0-normal with intact bony outlines and normal joint space; 1—slight abnormality with any one or two of the exterior metatarsal bones showing slight bone erosion; 2—definite early abnormality with any three to five of the exterior metatarsal bones showing bone erosion; 3—medium destructive abnormality with all the exterior metatarsal bones as well as any one or two of the interior metatarsal bones showing definite bone erosions; 4—severe destructive abnormality with all the metatarsal bones showing definite bone erosion and at least one of the inner metatarsal joints completely eroded leaving some bony joint outlines partly preserved; 5—mutilating abnormality without bony outlines. This scoring system is a modification from Salvcmini et al., 2001; Bush et al., 2002; Sims et al., 2004; Jou et al., 2005. […]

The next data set has as its system Caco-2 cells. The experiment in a line: Caco2 permeability (bi-directional). The data set is classed as in vitro ADME, human. The settings on record: Caco-2, apical to basolateral. In outline: as §1
On the technique in general: Caco-2 monolayers are a common model of the intestinal barrier.

Setting [10] is: SW1353 cells, OSM and IL-1β triggered, MMP13 levels 48 hours after triggering.
Setting [11] is: HeLa cells, OSM-triggered pSTAT1(2)-luciferase reporter.

pEC50, pIC50: −log10 of the molar value. Read-outs that look alike come from different tables or passages of the source. Bounds are passed on as bounds.

Recombinant human JAK1 catalytic domain, sequence (P23458 850-1154): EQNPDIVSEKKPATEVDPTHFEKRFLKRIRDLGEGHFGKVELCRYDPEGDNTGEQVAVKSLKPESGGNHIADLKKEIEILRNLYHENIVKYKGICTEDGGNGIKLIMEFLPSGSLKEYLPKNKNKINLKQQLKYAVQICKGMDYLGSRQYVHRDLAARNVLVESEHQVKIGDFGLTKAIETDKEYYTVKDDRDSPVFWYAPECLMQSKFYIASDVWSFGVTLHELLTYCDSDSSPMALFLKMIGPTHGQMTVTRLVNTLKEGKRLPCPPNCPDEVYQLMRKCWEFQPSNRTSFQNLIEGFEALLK
Recombinant human TYK2 catalytic domain, sequence (P29597 871-1187): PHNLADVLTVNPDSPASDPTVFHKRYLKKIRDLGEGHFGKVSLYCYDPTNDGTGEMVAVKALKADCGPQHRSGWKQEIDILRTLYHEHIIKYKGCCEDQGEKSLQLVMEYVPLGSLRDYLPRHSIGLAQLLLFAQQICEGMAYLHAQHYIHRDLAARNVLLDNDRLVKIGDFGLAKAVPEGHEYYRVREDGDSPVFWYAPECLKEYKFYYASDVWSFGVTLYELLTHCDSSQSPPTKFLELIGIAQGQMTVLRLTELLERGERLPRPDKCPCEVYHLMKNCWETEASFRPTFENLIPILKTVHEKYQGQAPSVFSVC
Description for MMP13 in SW1353 cells: The cells were seeded in 96 well plates at 15,000 cells/well in a volume of 120 μL DMEM (Invitrogen) containing 10% (v/v) FBS and 1% penicillin/streptomycin (InVitrogen) incubated at 37° C. […] MMP13 activity was measured using an antibody capture activity assay. […] Next the wells were washed twice with PBS+0.05% Tween followed by MMP13 activation by addition of 35 μL of a 1.5 mM 4-Aminophenylmercuric acetate (APMA) (Sigma, A9563) solution and incubation at 37° C. for 1 hour. […] Percentage inhibition=((fluorescence determined in the presence of vehicle−fluorescence determined for sample with test compound present) divided by (fluorescence determined in the presence of vehicle−fluorescence determined for sample without trigger))*100%.

Take `O=C(Nc1nc2cccc(-c3ccc(OCc4ccccc4)cc3)n2n1)C1CC1` [Compound 12, N-(5-(4-(benzyloxy)phenyl)-[1,2,4]triazolo[1,5-a]pyridin-2-yl)cyclopropanecarboxamide]: in the data set on TNF-alpha release, the “reduction in the TNF release” value was over 50%. Moreover, the Papp A→B at 1 h, 10 µM in [1] is 23.4 ×10⁻⁶ cm/s. For the same molecule, in data set [1], the efflux ratio at 1 h, 10 µM turned out to be 0.82. Further, in [2], the “Microsomal Stability Human (%)” value is “*** (*** 51-75)”. Also, in data set [3], the “Microsomal Stability Rat (%)” value is on record as “**** (**** 76-100)”. Further, the pIC50 in data set [4], in [5] and in data set [6] was over 7.00 in each case. For the same molecule, the pEC50 in the data set on MMP13 in SW1353 cells (setting [10]) is under 6.00; in data set [7] (setting [11]) it was 6.30 to 7.00.
Regarding `Cc1cc(COc2ccc(-c3cccc4nc(NC(=O)C5CC5)nn34)cc2)no1` [Compound 52, N-(5-(4-((5-methylisoxazol-3-yl)methoxy)phenyl)-[1,2,4]triazolo[1,5-a]pyridin-2-yl)cyclopropanecarboxamide], the “reduction in the TNF release” value in the data set with TNF-alpha release was over 50%. Besides, in [1], the Papp A→B at 1 h, 10 µM was 31.8 ×10⁻⁶ cm/s. The efflux ratio at 1 h, 10 µM in data set [1] was 1.02. The “Microsomal Stability Human (%)” value in [2] was “* (* 0-25)”. For the same molecule, the “Microsomal Stability Rat (%)” value in data set [3] is “* (* 0-25)”. Further, the pIC50 in data set [4] was 6.00 to 6.30; in data set [8], 6.00 to 6.30; in data set [5], over 7.00; in data set [6], over 7.00. Besides, the pEC50 with MMP13 in SW1353 cells (setting [10]) was under 6.00; in data set [7] (setting [11]), 6.00 to 6.30.
For the molecule `O=C(NCCOc1ccccc1)c1ccc(-c2cccc3nc(NC(=O)C4CC4)nn23)cc1` [Compound 60, 4-(2-(cyclopropanecarboxamido)-[1,2,4]triazolo[1,5-a]pyridin-5-yl)-N-(2-phenoxyethyl)benzamide], in the data set with TNF-alpha release, the “reduction in the TNF release” value is over 50%. Moreover, the Papp A→B at 1 h, 10 µM in data set [1] is 16.9 ×10⁻⁶ cm/s. Also, the efflux ratio at 1 h, 10 µM in data set [1] amounted to 2.55. Further, the “Microsomal Stability Human (%)” value in data set [2] was “** (** 26-50)”. In addition, the “Microsomal Stability Rat (%)” value in [3] is “* (* 0-25)”. For the same molecule, the pIC50 in data set [4] is 6.30 to 7.00; in data set [8], 6.00 to 6.30; in data set [5] it was over 7.00; in data set [6], over 7.00. In addition, the values for the pEC50 (in the data set on MMP13 in SW1353 cells (setting [10]); in [7] (setting [11])) were 6.00 to 6.30 and 6.30 to 7.00, respectively.
As for `O=C(Nc1nc2cccc(-c3ccc(C(=O)N4CCC(C(=O)c5ccccc5)CC4)cc3)n2n1)C1CC1` [Compound 74, N-(5-(4-(4-benzoylpiperidine-1-carbonyl)phenyl)-[1,2,4]triazolo[1,5-a]pyridin-2-yl)cyclopropanecarboxamide], in the data set on TNF-alpha release, the “reduction in the TNF release” value is given as over 50%. Further, the Papp A→B at 1 h, 10 µM in [1] was 23.3 ×10⁻⁶ cm/s. Moreover, the efflux ratio at 1 h, 10 µM in data set [1] is 1.14. The “Microsomal Stability Human (%)” value in data set [2] is “* (* 0-25)”. Further, the “Microsomal Stability Rat (%)” value in [3] is given as “**** (**** 76-100)”. For the same molecule, the results for the pIC50 in [4], in [5] and in [6] were under 6.00, 6.30 to 7.00 and over 7.00, respectively. Besides, the pEC50 (with MMP13 in SW1353 cells (setting [10]); in [7] (setting [11])) was under 6.00 throughout.
On to `O=C(Nc1nc2cccc(-c3ccc(CN4CCS(=O)(=O)CC4)cc3)n2n1)C1CC1` [Compound 200, Cyclopropanecarboxylic acid {5-[4-(1,1-dioxo-thiomorpholin-4-ylmethyl)-phenyl]-[1,2,4]triazolo[1,5-a]pyridin-2-yl}-amide], for which the “reduction in the TNF release” value with TNF-alpha release is over 50%. For the same molecule, in data set [1], the Papp A→B at 1 h, 10 µM is 4.65 ×10⁻⁶ cm/s. For the same molecule, the “Microsomal Stability Human (%)” value in [2] was “**** (**** 76-100)”. Moreover, in [3], the “Microsomal Stability Rat (%)” value is reported as “*** (*** 51-75)”. The pEC50 with MMP13 in SW1353 cells (SW1353, 48 h) is under 6.00; in [7] (HeLa) it was 6.00 to 6.30. In addition, in data set [9], the “efficacy in all readouts of the rat CIA study” value is given as “efficacious in all readouts”.
In the case of `N#CC1CN(C(=O)c2ccc(-c3cccc4nc(NC(=O)C5CC5)nn34)cc2)C1` [Compound 328, Cyclopropanecarboxylic acid {5-[4-(3-cyano-azetidine-1-carbonyl)-phenyl]-[1,2,4]triazolo[1,5-a]pyridin-2-yl)-amide], the “Papp (A2B)” value in the data set with Caco-2 cells is recorded as 0.2! cmx10-6sec-1. Besides, the figures for the pEC50 (in the data set on MMP13 in SW1353 cells (setting [10]); in data set [7] (setting [11])) were under 6.00 and 6.00 to 6.30, respectively.
